In patent US20250066323A1, “INHIBITORS OF HUMAN RESPIRATORY SYNCYTIAL VIRUS AND METAPNEUMOVIRUS” (priority 2023, published 2025):
Where two headings read alike, the source gives them in different places.

What was measured:
RSV-A2-GFP = RSV-A2-GFP viral replication assay; assay type: cell-based, Human Respiratory Syncytial Virus
Text: GFP sequence was derived from pJTI™ R4 Dest CMV N-EmGFP pA Vector (Invitrogen) and was cloned into the intergenic sequence between wild-type RSV-A2 P and M genes using standard recombineering techniques. Recombinant RSV-A2-GFP was propagated in Hep2 cells (human cells contains HeLa marker chromosomes and were derived via HeLa contamination, ATCC CCL-23) with infection Multiplicity of Infection (MOI) of 0.1. Virus was harvested 3 days after infection by collecting all culture material and freeze-thaw the viral culture in liquid nitrogen for at least 5 times. To generating virus working stocks, thaw frozen samples in 37° C. water bath then centrifuge at 218 g for 15 min at 4° C. Add 1/10 of 10×SPG (Biological Industries 06-3061-01-5A), mix, aliquot supernatant, and quick-freeze in liquid nitrogen then transfer to −80° C. freezer for storage. Virus titer was determined by automated plaque assay in HEp-2 cells following methods described previously (Wen Z. et al.; J Virol Methods. 2019 January; 263:88-95).
Calu-1 cells (human lung epidermoid carcinoma, ATCC HTB-54) assay ready freezedown (ARF generation described separately) were used in assays. Compound plates were prepared by dispensing compounds dissolved in DMSO into wells of 384 well coming 3985 polystyrene flat clear bottom optical imaging microplates (202.5 nL/well) using an ECHO acoustic dispenser. Each compound was tested in a 10-point serial 3-fold dilution (typical final concentrations: 403 nM-0.02 nM and 40.3 nM-0.002 nM). […] To set up the assay, thaw ARF vial(s) in 37° C. water bath until small ice crystal remain and resuspend into assay media (DMEM containing 2% FBS, 100 U/ml Penicillin-Streptomycin). Count cells using default parameters on ViCell and dilute to 20,000 cells per ml in assay media. Add RSV GFP to cells at 24,000 pfu/ml (MOI=1.2). Mix by gentle inversion. 10 μl/well of 100% DMSO was dispensed to CellTiter-Glo (CTG) assay Max_E controls wells. Dispense cells at 50 μl/well using Bravo and 50 μl filtered tips into compound plates. Cover plates with MicroClime lids loaded with 7.5 ml of assay media to minimize evaporation. Incubate at 37 degrees C. and 5% CO2 for 96 hrs. Following incubation, distinct, GFP-expressing cells are counted using an Acumen imaging system with appropriate settings. A same-well CTG assay is performed by adding 10 μl/well reconstituted CellTiter-Glo reagent (Promega G7573) and reading plates on PerkinElmer Envision according to manufacturer's instructions. Raw data were loaded and analyzed in ActivityBase. Antiviral IC50 and cytotoxicity CC50 values were determined using a 4 parameter logistic fit based on the Levenberg-Marquardt algorithm. Model: 205-4 Parameter Logistic.
Calu-1 cells were purchased from ATCC (Cat #HTB-54) and are expanded in growth media (DMEM containing 10% FBS, 100 U/ml Penicillin-Streptomycin). To make ARF, remove and discard cell culture media, briefly rinse the cell layer with PBS to remove all traces of serum. Add 2.5 ml of TrypLE Express solution and incubate until cells dislodge, then add growth media and resuspend the cells by gentle pipetting. Count cells for concentration and determine viability using a ViCell. Centrifuge at RT, 300 g for 5 min to pellet cells. Gently aspirate supernatant, flick pellet to loosen cells. Resuspend cells in an appropriate volume of freezing medium (DMEM containing 10% DMSO, 10% FBS, 100 U/ml Penicillin-Streptomycin) to achieve 5×10^6/ml. Transfer 1 ml of cell suspension to freezing vials. Put vials to CoolCell cryopreservation container and place CoolCell container upright in a −80° C. freezer overnight before transferring vials to liquid nitrogen vapor for storage.

hMPV-GFP = hMPV-GFP viral replication assay; assay type: cell-based, human metapneumovirus; conditions: read-out: hMPV EC50
Method: GFP expressing rgHMPV #3 p3 was generated in Dr. Buchholz's lab (Biacchesi S. et al., J Virol. 2007 June; 81(11): 6057-6067.) and propagated in VERO cells (kidney tissue derived from a normal, adult African green monkey. ATCC Cat #CCL-81) with infection Multiplicity of Infection (MOI) of 0.1. Virus was harvested 4 days after infection by collecting all culture material and freeze-thaw the viral culture in liquid nitrogen twice. To generating virus working stocks, thaw frozen samples in 37° C. water bath then centrifuge at 218 g for 15 min at 4° C. Add 1/10 of 10×SPG (Biological Industries 06-3061-01-5A), mix, aliquot supernatant, and quick-freeze in liquid nitrogen then transfer to −80° C. freezer for storage. Virus titer was determined by performing titration test in 96-well plates and calculate approximate virus titer using GFP event/well data.
Compound plates were prepared by dispensing compounds dissolved in DMSO into wells of 384 well coming 3985 polystyrene flat clear bottom optical imaging microplates (202.5 nL/well) using an ECHO acoustic dispenser. Each compound was tested in a 10-point serial 3-fold dilution (typical final concentrations: 40,300 nM-2 nM). […] Continuous culture of VERO cells were maintained in complete culture media (OptiMEM supplemented with 2 mM GlutaMAX™ and 100 U/ml Penicillin-Streptomycin). To set up the assay, trypsinize VERO cells with 0.25% Trypsin-EDTA until cells dislodge, then re-suspend cells with 1 mL FBS. Spin down cells at 300 g for 5 min and wash cells twice in culture media, then count cells using default parameters on ViCell. Cells were then diluted to 100,000 cells/ml (5,000 cells/50 μl) in complete culture media+TrypLE Select (80 μl/ml). Add hMPV-GFP virus to cells at 125,000 pfu/ml (MOI=1.25). Mix by gentle inversion. 10 μl/well of 100% DMSO was dispensed to CellTiter-Glo (CTG) assay Max_E controls wells. Dispense cells at 50 μl/well using Bravo and 50 μl filtered tips into compound plates. Cover plates with MicroClime lids loaded with 7.5 ml of assay media to minimize evaporation. Lightly shake plate for 10 minutes at room temperature then incubate at 37 degrees C. and 5% CO2 for 48 hrs. Following incubation, distinct, GFP-expressing cells are counted using an Acumen imaging system with appropriate settings. A same-well CTG assay is performed by adding 10 μl/well reconstituted CellTiter-Glo reagent (Promega G7573) and reading plates on PerkinElmer Envision according to manufacturer's instructions. Raw data were loaded and analyzed in ActivityBase. Antiviral IC50 and cytotoxicity CC50 values were determined using a 4 parameter logistic fit based on the Levenberg-Marquardt algorithm. Model: 205-4 Parameter Logistic.

[1] = human respiratory syncytial virus, Calu-1, 96 h, read-out: RSV EC50, Calu-1 cells, RSV-A2-GFP MOI=1.2, 96 hrs, GFP-expressing cells counted
[2] = human metapneumovirus, Vero, 48 h
[3] = read-out: RSV EC50, Calu-1 cells, RSV-A2-GFP MOI=1.2, 96 hrs, GFP-expressing cells counted
[4] = VERO cells, hMPV-GFP MOI=1.25, 48 hrs, GFP-expressing cells counted

| SMILES | EC50 (RSV-A2-GFP; [1]) | EC50 (hMPV-GFP; [2]) | EC50 (RSV-A2-GFP; [3]) | EC50 (hMPV-GFP; [4]) |
| --- | --- | --- | --- | --- |
| Cn1nc(-c2cscn2)cc1C(=O)NCC(C)(O)c1cc(C(C)(C)N)cc(-n2ccc3c(F)cccc32)n1 (single isomer, unassigned) [Example 12-B] | < 10 nM | > 100 nM | – | – |
| Cn1nc(-c2cscn2)cc1C(=O)NCC(C)(O)c1cc(C(C)(C)N)cc(-c2ccc(Cl)cc2)n1 (single isomer, unassigned) [Example 13-B] | < 10 nM | > 100 nM | – | – |
| Cc1ccc(-c2cc(C(C)(C)N)cc(C(C)(O)CNC(=O)c3cc(-c4cscn4)nn3C)n2)cc1 (single isomer, unassigned) [Example 14-B] | < 10 nM | > 100 nM | – | – |
| Cn1nc(-c2cscn2)cc1C(=O)NCC(C)(O)c1cc(C(C)(C)N)cc(-c2ccc(F)c(F)c2)n1 (single isomer, unassigned) [Example 15-B] | < 10 nM | > 100 nM | – | – |
| Cn1nc(-c2cscn2)cc1C(=O)NCC(C)(O)c1cc(C(C)(C)N)cc(-c2ccc(F)c(Cl)c2)n1 (single isomer, unassigned) [Example 16-B] | < 10 nM | > 100 nM | – | – |
| Cn1nc(-c2cscn2)cc1C(=O)NCC(C)(O)c1cc(C(C)(C)N)cc(-c2ccc(Cl)c(F)c2)n1 (single isomer, unassigned) [Example 17-B] | < 10 nM | > 100 nM | – | – |
| Cn1nc(-c2cscn2)cc1C(=O)NCC(C)(O)c1cc(C(C)(C)N)cc(-c2ccc(F)cc2F)n1 (single isomer, unassigned) [Example 18-B] | < 10 nM | > 100 nM | – | – |
| Cc1cc(F)ccc1-c1cc(C(C)(C)N)cc(C(C)(O)CNC(=O)c2cc(-c3cscn3)nn2C)n1 (single isomer, unassigned) [Example 19-B] | < 10 nM | > 100 nM | – | – |
| Cn1nc(-c2cscn2)cc1C(=O)NCC(C)(O)c1cc(C(C)(C)N)cc(-c2ccc(F)c(F)c2F)n1 (single isomer, unassigned) [Example 20-B] | < 10 nM | > 100 nM | – | – |
| CCC(O)(CNC(=O)c1cc(-c2cscn2)nn1C)c1cc(C(C)(C)N)cc(-c2ccc(F)cc2)n1 (single isomer, unassigned) [Example 21-A] | < 10 nM | > 100 nM | – | – |
| CCC(O)(CNC(=O)c1cc(-c2cscn2)nn1C)c1cc(C(C)(C)N)cc(-c2ccc(F)cc2)n1 (single isomer, unassigned) [Example 21-B] | – | – | 10 to 100 nM | > 100 nM |
| Cc1nc(-c2ncccn2)sc1C(=O)NCC(O)(c1cc(C(C)(C)N)cc(-c2ccc(F)cc2)n1)C1CC1 (single isomer, unassigned) [Example 22-A] | – | > 100 nM | > 100 nM | – |
| Cc1nc(-c2ncccn2)sc1C(=O)NCC(O)(c1cc(C(C)(C)N)cc(-c2ccc(F)cc2)n1)C1CC1 (single isomer, unassigned) [Example 22-B] | – | – | < 10 nM | > 100 nM |
| Cn1nc(-c2cscn2)cc1C(=O)NCC(O)(c1cc(C(C)(C)N)cc(-c2ccc(F)cc2)n1)C1CC1 (single isomer, unassigned) [Example 23-B] | < 10 nM | > 100 nM | – | – |
| Cn1nc(-c2cscn2)cc1C(=O)NCC(O)(c1cc(C(C)(C)N)cc(-c2ccc(F)cc2)n1)C(F)F (single isomer, unassigned) [Example 24-A] | < 10 nM | > 100 nM | – | – |
| Cn1nc(-c2cscn2)cc1C(=O)NCC(O)(c1cc(C(C)(C)N)cc(-c2ccc(F)cc2)n1)C(F)F (single isomer, unassigned) [Example 24-B] | – | – | 10 to 100 nM | > 100 nM |
| Cc1nc(-c2ncccn2)sc1C(=O)NCC(O)(c1cc(C(C)(C)N)cc(-c2ccc(F)cc2)n1)C(F)(F)F (single isomer, unassigned) [Example 25-A] | – | > 100 nM | 10 to 100 nM | – |
| Cc1nc(-c2ncccn2)sc1C(=O)NCC(O)(c1cc(C(C)(C)N)cc(-c2ccc(F)cc2)n1)C(F)(F)F (single isomer, unassigned) [Example 25-B] | – | – | > 100 nM | > 100 nM |
| Cn1nc(-c2cscn2)cc1C(=O)NCC(O)(c1cc(C(C)(C)N)cc(-c2ccc(F)cc2)n1)C(F)(F)F (single isomer, unassigned) [Example 26-A] | < 10 nM | > 100 nM | – | – |
| Cn1nc(-c2cscn2)cc1C(=O)NCC(C)(O)c1cc(C2(C)CCNC2)cc(-c2ccc(F)cc2)n1 (single isomer, unassigned) [Example 27-A] | – | > 100 nM | > 100 nM | – |
| Cn1nc(-c2cscn2)cc1C(=O)NCC(C)(O)c1cc(C2(C)CCNC2)cc(-c2ccc(F)cc2)n1 (single isomer, unassigned) [Example 27-B] | – | – | > 100 nM | > 100 nM |
| Cn1nc(-c2cscn2)cc1C(=O)NCC(C)(O)c1cc(C2(C)CCNC2)cc(-c2ccc(F)cc2)n1 (single isomer, unassigned) [Example 27-C] | – | – | < 10 nM | > 100 nM |
| Cn1nc(-c2cscn2)cc1C(=O)NCC(C)(O)c1cc(C2(C)CCNC2)cc(-c2ccc(F)cc2)n1 (single isomer, unassigned) [Example 27-D] | – | – | < 10 nM | > 100 nM |
| Cn1nc(-c2cscn2)cc1C(=O)NCC(C)(O)c1cc2c(c(-c3ccc(F)cc3)n1)OCC2(C)N (single isomer, unassigned) [Example 28-A] | – | > 100 nM | < 10 nM | – |
| Cn1nc(-c2cscn2)cc1C(=O)NCC(C)(O)c1cc2c(c(-c3ccc(F)cc3)n1)OCC2(C)N (single isomer, unassigned) [Example 28-B] | – | – | 10 to 100 nM | > 100 nM |
| Cn1nc(-c2cscn2)cc1C(=O)NCC(C)(O)c1cc2c(c(-c3ccc(F)cc3)n1)OCC2(C)N (single isomer, unassigned) [Example 28-C] | – | – | > 100 nM | > 100 nM |
